Data on 18 substances can be found in patent US20250108088A1, “REGENERATIVE PEPTIDES AND METHODS FOR USE THEREOF” (priority 2023, published 2025).

One assay concerns HNDF fibroblasts. Put plainly: Fibroblast cell proliferation (EDU). Format: cell-based, human. The settings on record: N = 3; for Fibroblast proliferation, Representative value from experiments (% change relative to control): most effective significant concentration. How it is done:
Fibroblast proliferation is an important component of tissue regeneration. To determine if the peptides of the disclosure affect fibroblast proliferation, HNDFs were grown as described above, and split from 1-10 cm plates to 4-24 well plates. After allowing the cells to grow overnight, normal media was replaced with starvation media (1% FBS in DMEM). 10 ng/ml of fibroblast growth factor (FGF) served as a positive control, untreated cells (starvation media only) served as a negative control, and different concentrations of the peptides as test articles. The cells were then exposed to the peptides for a day before adding 5-Ethynyl-2′-deoxyuridine (EDU) EDU signal marker for 2-4 hours to assess DNA synthesis and cell proliferation.
The fibroblasts were fixed in PFA for 10-15 minutes, then washed 2× in 4% BSA. 0.1% Triton X-100 in PBS was added for 20 min at 23° C. to permeabilize the cells. The cells were washed 2× in 4% BSA and the following reaction mixture was added: 0.25% of 488 iFlour azide, 4% CuSO, 10% Sodium Ascorbate in PBS. The cells were incubated at 23° C. for 30 minutes. The cells were washed in BSA 1× and in PBS 1×. The cells were also stained for DAPI for 30 minutes at 23° C. The cells were washed 2× in PBS and maintained in PBS.
Plates were imaged using the Celigo Imaging Cytometer by Nexcelcom. The amount of fluorescent expression of EDU and DAPI were quantified to determine the amount of EDU/field (and thus the percentage of fibroblast cells dividing).
Because the concentration required to induce an effect with each peptide was not known, each peptide was tested in 3 concentrations: 10 ng/ml, 100 ng/ml, and 1000 ng/ml as shown in Table 4A and Table 4B.

Assay [1] concerns Acinetobacter baumannii ATCC 196062. Put plainly: Diffusion agar plate method, zone of inhibition. The assay is classed as cell-based. The settings on record: 62.5 μg/ml to 1000 μg/ml; FIG. 5, FIG. 10. How it is done: (§1) Cell culture: Cultures of each bacterial strain were prepared by inoculating on Muller Hinton Agar (MHA) medium. After overnight incubation at 37° C., the density of the bacterial cells was compared to the McFarland turbidity standard (0.5).
(§2) Plates were swabbed with McFarland 0.5 inoculum of each test bacteria. […] serial dilutions of the peptides were prepared and 20 μl of compound were dropped onto the MHA. Antibiotic disc served as a positive control and vehicle alone served as the negative control. Plates were incubated for 16-18 hours and assessed for antibacterial activity. Zones of inhibition were measured for each TA dilution and compared with the controls.

The subject of assay [2] is Streptococcus pneumoniae DCC1335. Put plainly: Diffusion agar plate method, zone of inhibition. The assay is classed as cell-based. The settings on record: 62.5 μg/ml to 1000 μg/ml; FIG. 10. On the procedure:
as §1, §2

The test system of assay [3] is Normal human dermal fibroblasts (HNDF). Put plainly: Myofibroblast transition assay (MFT), aSMA immunofluorescence. The settings on record: N = 3; for Myofibroblast transition (MFT), aSMA/cell, % change relative to control: TGF-Beta induced HNDF, control of no peptide; for MFT, Representative value from experiments (% change relative to control): most effective significant concentration of 10, 100, 1000 ng/ml. The assay is classed as cell-based. From the text: The myofibroblast transition (MFT) assay determines the effect of the peptide on inhibiting the transition of fibroblasts to myofibroblasts. The extracellular matrix produced by myofibroblasts may be produced in excess and may not be remodeled during tissue healing, leaving behind the fibrous connective tissue that forms a scar. Thus, the ability to regulate the degree of MFT may enable control of scarring. To determine if the peptides provided herein affect MFT, the following assay was performed.
Normal human dermal fibroblasts (HNDF) were cultured in high glucose Dulbecco's modified eagle medium (DMEM) supplemented with 10% fetal bovine serum (FBS) and 5 ml of 10,000 units of penicillin/streptomycin. Cells were cultured on 10 cm plates with media changes every 2 days. Cells were passaged in 0.25% Trypsin/EDTA after achieving 80% confluency.
To induce myofibroblast transition (MFT), normal human dermal fibroblasts (HNDFs) were split from 1-10 cm plates to 5-96 well plates. Cells were then allowed to grow the next day. The following day, cells were serum starved (1% FBS in DMEM) for 4 hours prior to adding 20 ng/ml of TGF-Beta to all wells of the plate. 1000 μM of Vactosertib (TEW-7197/EW-7197) was added to serve as a positive control and different concentrations of peptides were added to serve as the test articles. The cells were then exposed to the compounds for 5 more days before fixation.
The cells were fixed in paraformaldehyde (PFA) for 10-15 minutes, then washed 2× in PBS. Cells were blocked in 4% BSA for 30 minutes at 23° C. Cells were stained with the primary alpha-smooth muscle actin (aSMA) antibody (1:100) for 1 hour at 23° C. or left out at 4° C. overnight. Cells were rinsed 2× with BSA and then the secondary antibody mix was added: Alexa 488 (1:500) and DAPI (1:1000) for 30 min at 23° C. or 1 hr at 4° C. The plates were covered during staining, then rinsed 2× in BSA and stored in PBS.
Plates were imaged using the Celigo Imaging Cytometer by Nexcelcom. The ratio of fluorescent expression of alpha-smooth muscle actin (aSMA) and DAPI were quantified to determine the amount of aSMA/cell.
The change (normalized to the control) in MFT for each concentration is shown along with the p value for all experiments relative to the control of no peptide.

Assay [4] concerns interleukin-8 (IL-8) production in human fibroblasts. Put plainly: Fibroblast inflammation assay (LPS-induced IL-8, ELISA). Format: cell-based. The settings on record: LPS induction. On the procedure: Inflammation in fibroblasts leads to the production of the chemokine interleukin-8 (IL-8), which stimulates fibroblast to myofibroblast transition (MFT) thereby enhancing scar formation. To determine if the peptides of the instant disclosure affect fibroblast response to inflammation and fibroblast IL-8 production, the following assays were performed.
Human fibroblasts were grown as described above. HNDFs were plated in 96 well plates at a concentration of 1×10^4 cells/well and allowed to incubate overnight. The next day cells were dosed with 5 μg/mL of LPS with and without the peptides. The negative control contained only media and vehicle, while the positive control was dosed with lipopolysaccharides (LPS) and dexamethasone (50 μg/ml). After 24 hours, the media was removed to measure IL6 and IL8 cytokine levels using ELISA. A standard curve was plotted in excel. All data were blank subtracted and then fit onto the curve to calculate cytokine concentrations.
For orientation: ELISA stands for enzyme-linked immunosorbent assay.

The subject of the next assay is Keratinocytes. Put plainly: Keratinocyte scratch assay. Format: cell-based, human. Also noted: Keratinocyte scratch assay (% change relative to control): unit not given here. On the procedure: HNDF fibroblasts were grown as described above. HNDFs were split from 1-10 cm plate to 4-24 well plates. Cells were allowed to grow until 90-100% confluent. Cells were serum starved (in 1% FBS in DMEM) for 4 hours before scratching using the Biotek Autoscratch machine. Cells were washed with PBS and the media was replaced with starvation media as a negative control, normal media (10% FBS) as positive control, and starvation media+compound as the test article. Cells were imaged at T=0 to serve as a baseline and fixed at T=48 hours. The images at 48 hours were imaged using phase contrast microscopy or with wheat germ agglutinin (WGA) stain.
Scratch assays were also performed on keratinocytes. Keratinocytes were grown to confluency and scratch assays were performed and measured as above with fibroblasts.

As for AATHEFGHSLGLSH [MBm1], the “Fibroblast proliferation (% change relative to control)” value with HNDF fibroblasts (100 ng/ml peptide) is given as 0.2919%. In addition, the “Fibroblast proliferation, Representative value from experiments (% change relative to control)” value in the assay with HNDF fibroblasts was 0.2919 (p = 0.044) %.
Turning to ERDLK [MBb14], the “Fibroblast proliferation (% change relative to control)” value with HNDF fibroblasts (10 ng/ml peptide) was 1.094%. Also, the “Fibroblast proliferation, Representative value from experiments (% change relative to control)” value in the assay on HNDF fibroblasts is 1.094 p = (0.029) %.
In the same order, the values of FEDVIAEP [MBa5] are 0.5133% and 0.5133 (p = 0.004) %.
Regarding “GFWDIL WHIPHTIKG (GFWDILWHIPHTIKG) [MBdol15]”, the “agar zone of inhibition, inhibiting bacterial growth” value in assay [1] and in assay [2] was “effective” in each case.
For GYRCSKG [MBa7], the “Fibroblast proliferation (% change relative to control)” value with HNDF fibroblasts (10 ng/ml peptide) was found to be 0.3483%; in the assay with HNDF fibroblasts (1000 ng/ml peptide), 0.4644%. Moreover, the “Fibroblast proliferation, Representative value from experiments (% change relative to control)” value with HNDF fibroblasts was 0.4644 p = (0.01) %.
For IDFEDVIAEP [MBa4], the “Fibroblast proliferation (% change relative to control)” value in the assay on HNDF fibroblasts (1000 ng/ml peptide) is 0.8384%. Moreover, the “Fibroblast proliferation, Representative value from experiments (% change relative to control)” value in the assay with HNDF fibroblasts is reported as 0.8384 p = (0.037) %.
With PKPQP [MBb28], the “Myofibroblast transition (MFT), aSMA/cell, % change relative to control” value in assay [3] (100 ng/ml peptide) is −0.243%; in assay [3] (1000 ng/ml peptide) it was −0.1881%. Besides, the “MFT, Representative value from experiments (% change relative to control)” value (from here on “MFT … (% change relative to control)”) in assay [3] is on record as −0.243 p = (0.006) %. In addition, the “effect on IL-8 inhibition in fibroblasts relative to the negative control” value in assay [4] is recorded as “low but significant effect”.
For QFCGPCGLRKRLRKFRNK [MBb11], the “Myofibroblast transition (MFT), aSMA/cell, % change relative to control” value in assay [3] (100 ng/ml peptide) is given as −0.3537%. Also, the “Myofibroblast transition (MFT), aSMA/cell, % change relative to control” value in assay [3] (1000 ng/ml peptide) was −0.419%. Also, the “MFT … (% change relative to control)” value in assay [3] is recorded as −0.419 p = (0.025) %. In the assay on Keratinocytes, the “increase of keratinocyte migration” value is reported as “at least 39%” and the “rate of keratinocyte migration” value is “significantly increased”. In addition, the “Keratinocyte scratch assay (% change relative to control)” value in the assay with Keratinocytes (1000 ng/ml, N = 8) is 0.3892. In assay [4], the “effect on IL-8 inhibition in fibroblasts relative to the negative control” value was “low but significant effect”.
Regarding RWMAP [MBb74], the “Myofibroblast transition (MFT), aSMA/cell, % change relative to control” value in assay [3] (10 ng/ml peptide) is recorded as 0.04975%; in assay [3] (1000 ng/ml peptide) it was −0.3048%. Further, the “MFT … (% change relative to control)” value in assay [3] was −0.3048 p = (0.019) %.
In the case of SAYGVSKGLRKRLRKFRNK [MBb51], the “Myofibroblast transition (MFT), aSMA/cell, % change relative to control” value is on record as −0.5028% in assay [3] (10 ng/ml peptide) and −0.3773% in assay [3] (1000 ng/ml peptide). In assay [3], the “MFT … (% change relative to control)” value is −0.5028 p = (0.042) %. In addition, the “Fibroblast proliferation (% change relative to control)” value in the assay on HNDF fibroblasts (100 ng/ml peptide) is 0.3099%; in the assay on HNDF fibroblasts (1000 ng/ml peptide), 0.4175%. For the same substance, the “Fibroblast proliferation, Representative value from experiments (% change relative to control)” value in the assay with HNDF fibroblasts is given as 0.4175 p = (0.025) %.
As for SDAAVDTSSEITTKDLKEKKEVVEEAENGR [PS-2], the figures for the “Myofibroblast transition (MFT), aSMA/cell, % change relative to control” value in assay [3] (10 ng/ml peptide) and in assay [3] (100 ng/ml peptide) were −0.4315% and −0.498%, respectively. Moreover, the “MFT … (% change relative to control)” value in assay [3] was −0.498 p = (0.048) %.
Take SSSGLGLRKRLRKFRNK [MBb50]: in the assay on HNDF fibroblasts (100 ng/ml peptide), the “Fibroblast proliferation (% change relative to control)” value is 0.3589%. Also, the “Fibroblast proliferation, Representative value from experiments (% change relative to control)” value with HNDF fibroblasts is 0.3589 p = (0.025) %.
As to TFMSHLFCCVQKRCDCSF [MBdol23], the “agar zone of inhibition, inhibiting bacterial growth” value in assay [1] and in assay [2] was “effective” throughout.
For the substance VAAHELGHSLGMGH [MBm2], the “Myofibroblast transition (MFT), aSMA/cell, % change relative to control” value in assay [3] (10 ng/ml peptide) is listed as −0.4235%; in assay [3] (100 ng/ml peptide) it was −0.3275%; in assay [3] (1000 ng/ml peptide), −0.2058%. Moreover, the “MFT … (% change relative to control)” value in assay [3] was −0.4235 p = (0.007) %.
In the same order, the values of VCDEPKDQTVVGPALAAYR [MBWhit46] are −0.534%, −0.6191%, −0.6328% and −0.6328 p = (0.031) %.
On to VLFEDVIAEP [MBBey 37], for which the “Myofibroblast transition (MFT), aSMA/cell, % change relative to control” value in assay [3] (1000 ng/ml peptide) is −0.2873%. Further, the “MFT … (% change relative to control)” value in assay [3] was −0.2873 p = (0.018) %.
In the same order, the values of VYFVIKT [MBBey41] are −0.691% and −0.691 p = (0.021) %.
For WVSGL [MBb7], the entries for the “Myofibroblast transition (MFT), aSMA/cell, % change relative to control” value in assay [3] (10 ng/ml peptide) and in assay [3] (100 ng/ml peptide) were −0.2139% and −0.1848%, respectively. Also, the “MFT … (% change relative to control)” value in assay [3] is recorded as −0.2139 p = (0.02) %.
